# Key:
# oxotremorine hypothermia = experiment: standard oxotremorine hypothermia antagonism test; format: in vivo; conditions: ip; intraperitoneally
# yohimbine toxicity = experiment: standard yohimbine toxicity potentiation test; format: in vivo; conditions: ip; intraperitoneally
# [1] = literature (J. Pharmaceutical Sciences, December 1974); cited from earlier work
# [2] = literature (J. Pharmaceutical Sciences, December 1974); cited from earlier work; remark: listed apart in the source
# [3] = rat liver microsome incubation system (metabolism); format: in vitro ADME; conditions: from the corresponding N-[2-(dimethylamino)cyclopentyl]propionanilide compound
Molecule,ED50 (oxotremorine hypothermia),ED50 (yohimbine toxicity),further results
"CCC(=O)N(c1ccc(Cl)c(Cl)c1)[C@@H]1CCC[C@H]1N (relative stereo) [Trans-3,4-dichloro-N-(2-aminocyclopentyl)-propionanilide]",< 1 mg/kg,< 1 mg/kg,–
"CCC(=O)N(c1ccc(Cl)c(Cl)c1)[C@@H]1CCC[C@H]1NC (relative stereo) [Trans-3,4-dichloro-N-[2-(N-methylamino)-cyclopentyl]propionanilide]",< 1 mg/kg,< 1 mg/kg,–
COc1ccc(C(O)C2CCCCC2N2CCCCC2)cc1 (stereo not shown) [[2-(N-piperidinylcyclohexyl]-(4-methoxyphenyl)methanol],–,–,diuretic activity [1]: Diuretic activity is alleged
ON(c1ccccc1)C1CCCCC1N1CCCC1 (stereo not shown) [N-[2-(N-pyrrolidinyl)cyclohexyl]-N-phenylhydroxylamine],–,–,CNS properties [2]: do not have useful CNS properties
2-(N-methylamino)cyclopentylpropionanilide,–,–,metabolite formed in rat liver microsome incubation [3]: is a metabolite of the corresponding N-[2-(dimethylamino)cyclopentyl]propionanilide compound
